Experimental data published in patent US20100260683A1, “THERMOLABILE LIPOSOME WITH CONTROLLED RELEASE TEMPERATURE” (MAX-PLANCK-GESELLSCHAFT ZUR FORDERUNG DER WISSENCHAFTEN E.V., priority 2001, published 2010).

test: Main transition temperature (TM) of phosphatidylcholines; format: physicochemical; details: acyl chains at positions 1 and 2 of glycero-3-phosphocholine or 1 and 3 of glycero-2-phosphocholine
Protocol: The abovementioned preferred composition of the liposome according to the invention can be made to measure for other temperature ranges by choice of components having the main transition temperature suitable in each case. In table 1, the main transition temperatures (TM) of phosphatidylcholines are indicated whose main transition temperature lies in the range from 0 to 80° C. The main transition temperatures are recognizable as from the table, depending on the chain length and the distribution over the positions 1 and 2 of glycero-3-phosphocholine or 1 and 3 of glycero-2-phosphocholine.

Row | SMILES | TM (main transition temperature) [°C]
1 | CCCCCCCCCCCCCCCCCCCC(=O)OC[C@H](COP(=O)([O-])OCC[N+](C)(C)C)OC(=O)CCCCCCCCCCCCCCCCCCC [1,2-diarachinoyl-] | 66
2 | CCCCCCCCCCCCCCCCCCCCCC(=O)OC[C@H](COP(=O)([O-])OCC[N+](C)(C)C)OC(=O)CCCCCCCCCCCCCCCCCCCCC [1,2-dibehenoyl-] | 75
3 | CCCCCCCCCCCCCCCCCCCCCCCC(=O)OC[C@H](COP(=O)([O-])OCC[N+](C)(C)C)OC(=O)CCCCCCCCCCCCCCCCCCCCCCC [1,2-dilignoceroyl-] | 80
4 | CCCCCCCCCCCCCC(=O)OC[C@H](COP(=O)([O-])OCC[N+](C)(C)C)OC(=O)CCCCCCCCCCCCC [1,2-dimyristoyl-] | 23
5 | CCCCCCCCCCCCCCCC(=O)OCC(COP(=O)([O-])OCC[N+](C)(C)C)OC(=O)CCCCCCCCCCCCCCC (stereo not drawn) [1,2-dipalmitoyl-, 1,2-di-palmitoylglycero-3-phosphocholine] | 41
6 | CCCCCCCCCCCCCCCCCC(=O)OCC(COP(=O)([O-])OCC[N+](C)(C)C)OC(=O)CCCCCCCCCCCCCCCCC (stereo not drawn) [1,2-distearoyl-, 1,2-distearoylglycero-3-phospho-choline] | 56
7 | CCCCCCCCCCCCCC(=O)OCC(COC(=O)CCCCCCCCCCCCC)OP(=O)([O-])OCC[N+](C)(C)C [1,3-dimyristoyl-] | 19
8 | CCCCCCCCCCCCCCCC(=O)OCC(COC(=O)CCCCCCCCCCCCCCC)OP(=O)([O-])OCC[N+](C)(C)C [1,3-dipalmitoyl-] | 39
9 | CCCCCCCCCCCCCCCCCC(=O)OCC(COC(=O)CCCCCCCCCCCCCCCCC)OP(=O)([O-])OCC[N+](C)(C)C [1,3-distearoyl-] | 53
10 | CCCCCCCC/C=C\CCCCCCCC(=O)O[C@H](COC(=O)CCCCCCCCCCCCCCCCCCCCC)COP(=O)([O-])OCC[N+](C)(C)C [1-behenoyl-2-oleoyl-] | 14
11 | CCCCCCCCCCCCCCCC(=O)OC(COC(=O)CCCCCCCCCCCCC)COP(=O)([O-])OCC[N+](C)(C)C (stereo not drawn) [1-myristoyl-2-palmitoyl] | 37
12 | CCCCCCCCCCCCCCCCCC(=O)O[C@H](COC(=O)CCCCCCCCCCCCC)COP(=O)([O-])OCC[N+](C)(C)C [1-myristoyl-2-stearoyl-] | 42
13 | CCCCCCCCCCCCCCCC(=O)OC[C@H](COP(=O)([O-])OCC[N+](C)(C)C)OC(=O)CCCCCCCCCCC [1-palmitoyl-2-lauroyl-] | 11
14 | CCCCCCCCCCCCCCCC(=O)OC[C@H](COP(=O)([O-])OCC[N+](C)(C)C)OC(=O)CCCCCCCCCCCCC [1-palmitoyl-2-myristoyl-] | 27
15 | CCCCCCCC/C=C\CCCCCCCC(=O)O[C@H](COC(=O)CCCCCCCCCCCCCCC)COP(=O)([O-])OCC[N+](C)(C)C [1-palmitoyl-2-oleoyl-] | 5
16 | CCCCCCCCCCCCCCCCCC(=O)O[C@H](COC(=O)CCCCCCCCCCCCCCC)COP(=O)([O-])OCC[N+](C)(C)C [1-palmitoyl-2-stearoyl-] | 52
17 | CCCCCCCCCCCCCCCCCC(=O)OC[C@H](COP(=O)([O-])OCC[N+](C)(C)C)OC(=O)CCCCCCCCCCC [1-stearoyl-2-lauroyl-] | 17
18 | CCCCCCCCCCCCCCCCCC(=O)OC[C@H](COP(=O)([O-])OCC[N+](C)(C)C)OC(=O)CCCCCCCCCCCCC [1-stearoyl-2-myristoyl-] | 33
19 | CCCCCCCC/C=C\CCCCCCCC(=O)O[C@H](COC(=O)CCCCCCCCCCCCCCCCC)COP(=O)([O-])OCC[N+](C)(C)C [1-stearoyl-2-oleoyl-] | 7
20 | CCCCCCCCCCCCCCCCCC(=O)OC[C@H](COP(=O)([O-])OCC[N+](C)(C)C)OC(=O)CCCCCCCCCCCCCCC [1-stearoyl-2-palmitoyl-] | 48
21 | CCCCCCCCCCCCCCCCCC(=O)OCC(COC(=O)CCCCCCCCCCCCC)OP(=O)([O-])OCC[N+](C)(C)C (stereo not drawn) [1-stearoyl-3-myristoyl-] | 46
